Legend:
Details in all cases: stereoisomer not certain
[1] = RP, Phenomenex Kinetex C18, 150 × 2.1 mm, 1.7 µm, 30 °C, 0.3 mL/min, estimated dead time 1.1 min; A: water + 0.1% formic acid, pH 3; B: acetonitrile + 0.1% formic acid, pH 3; gradient (min/%B) 0/2 14/100 17/100 17.1/2 25/2
[2] = as above; remark: listed apart in the source
[3] = HILIC, Waters ACQUITY UPLC BEH Amide, 150 × 2.1 mm, 1.7 µm, 40 °C, 0.5 mL/min, estimated dead time 0.66 min; A: 5% water + 95% acetonitrile; B: 70% water + 30% acetonitrile + 10 mM ammonium formate, pH 6.5; gradient (min/%B) 0/0 2/0 20/70 23/70 24/0 31/0
[4] = HILIC, Merck SeQuant ZIC-pHILIC, 150 × 2.1 mm, 5 µm, 40 °C, 0.3 mL/min, estimated dead time 1.1 min; A: acetonitrile; B: water + 2.8 mM ammonium formate, pH 9; gradient (min/%B) 0/5 1/5 10/51 13/51 13.1/5 20/5

Question: With `O=C(O)c1cc(=O)c2ccccc2[nH]1` [KYNURENATE] as the compound, how does the LC retention time [1] read?
Answer: 4.34 min

Question: What about the LC retention time [2] of the same compound?
Answer: 4.19 min

Question: And the LC retention time [3]?
Answer: 2.69 min

Question: And the LC retention time [4]?
Answer: 5.56 min

Question: For `NC(=O)[C@@H](N)Cc1c[nH]c2ccccc12` [L-TRYPTOPHANAMIDE], which LC retention time [1] is on record?
Answer: 3.82 min

Question: What about the LC retention time [2] of the same compound?
Answer: 3.7 min

Question: What about the LC retention time [3] of the same compound?
Answer: 5.86 min

Question: And the LC retention time [4]?
Answer: 7.51 min

Question: What does the source list for `Cc1cc2nc3[nH]c(=O)[nH]c(=O)c3nc2cc1C` [LUMICHROME]?
Answer: LC retention time [1]: 6.2 min; LC retention time [2]: 6.13 min; LC retention time [3]: 1.32 min; LC retention time [4]: 2.06 min

Question: For `COc1ccc2[nH]cc(CCNC(C)=O)c2c1` [MELATONIN], which LC retention time [1] is on record?
Answer: 6.37 min

Question: And the LC retention time [2]?
Answer: 6.29 min

Question: What about the LC retention time [3] of the same compound?
Answer: 0.88 min

Question: And the LC retention time [4]?
Answer: 1.36 min

Question: Which LC retention time [1] does the source give for `CSCC1OC(n2cnc3c(N)ncnc32)C(O)C1O` (centres undefined) [METHYLTHIOADENOSINE] here?
Answer: 4.07 min

Question: What about the LC retention time [2] of the same compound?
Answer: 3.82 min

Question: What about the LC retention time [3] of the same compound?
Answer: 1.99 min

Question: And the LC retention time [4]?
Answer: 3.94 min

Question: Which LC retention time [1] does the source give for `CC(C)=CCNc1ncnc2nc[nH]c12` [N6-(DELTA2-ISOPENTENYL)-ADENINE] here?
Answer: 5.14 min

Question: What about the LC retention time [2] of the same compound?
Answer: 4.91 min

Question: What about the LC retention time [3] of the same compound?
Answer: 1.15 min

Question: What about the LC retention time [4] of the same compound?
Answer: 2.04 min

Question: Which LC retention time [1] does the source give for `CC(=O)NC(CC(C)C)C(=O)O` (centres undefined) [N-ACETYLLEUCINE] here?
Answer: 5.25 min

Question: What about the LC retention time [2] of the same compound?
Answer: 5.08 min

Question: What about the LC retention time [3] of the same compound?
Answer: 4.22 min

Question: What about the LC retention time [4] of the same compound?
Answer: 3.02 min

Question: With `CSCCC(NC(C)=O)C(=O)O` (centres undefined) [N-ACETYLMETHIONINE] as the compound, how does the LC retention time [1] read?
Answer: 4.22 min

Question: What about the LC retention time [2] of the same compound?
Answer: 4.1 min

Question: What about the LC retention time [3] of the same compound?
Answer: 3.31 min

Question: And the LC retention time [4]?
Answer: 4.9 min

Question: For `CC(=O)NC(Cc1ccccc1)C(=O)O` (centres undefined) [N-ACETYLPHENYLALANINE], which LC retention time [1] is on record?
Answer: 5.64 min

Question: And the LC retention time [2]?
Answer: 5.54 min

Question: And the LC retention time [3]?
Answer: 2.48 min

Question: And the LC retention time [4]?
Answer: 4.08 min

Question: With `CC(=O)NCCc1c[nH]c2ccc(O)cc12` [N-ACETYLSEROTONIN] as the compound, how does the LC retention time [1] read?
Answer: 4.83 min

Question: And the LC retention time [2]?
Answer: 4.58 min

Question: What about the LC retention time [3] of the same compound?
Answer: 1.02 min

Question: What about the LC retention time [4] of the same compound?
Answer: 2.26 min

Question: With `CC(=O)NC(Cc1c[nH]c2ccccc12)C(=O)O` (centres undefined) [N-ACETYLTRYPTOPHAN] as the compound, how does the LC retention time [1] read?
Answer: 5.91 min

Question: What about the LC retention time [2] of the same compound?
Answer: 5.82 min

Question: And the LC retention time [3]?
Answer: 2.78 min

Question: What about the LC retention time [4] of the same compound?
Answer: 5.66 min

Question: Which results are given for `CSCC[C@H](NC=O)C(=O)O` [N-FORMYL-L-METHIONINE]?
Answer: LC retention time [1]: 3.93 min; LC retention time [2]: 3.85 min; LC retention time [3]: 2.24 min; LC retention time [4]: 5.35 min

Question: What does the source list for `CC(C)(CO)C(O)C(=O)NCCC(=O)O` (centres undefined) [PANTOTHENATE]?
Answer: LC retention time [1]: 3.49 min; LC retention time [2]: 3.4 min; LC retention time [3]: 3.31 min; LC retention time [4]: 6.03 min

Question: For `Cn1c(=O)[nH]c2ncn(C)c2c1=O` [PARAXANTHINE], which LC retention time [1] is on record?
Answer: 4.04 min

Question: What about the LC retention time [2] of the same compound?
Answer: 2.27 min

Question: What about the LC retention time [3] of the same compound?
Answer: 1.36 min

Question: What about the LC retention time [4] of the same compound?
Answer: 2.16 min

Question: What does the source list for `NC(Cc1ccccc1)C(=O)O` (centres undefined) [PHENYLALANINE]?
Answer: LC retention time [1]: 3.18 min; LC retention time [2]: 3.13 min; LC retention time [3]: 7.87 min; LC retention time [4]: 7.04 min

Question: Which results are given for `Cc1ncc(CO)c(CO)c1O` [PYRIDOXINE]?
Answer: LC retention time [1]: 1.81 min; LC retention time [2]: 1.65 min; LC retention time [3]: 3.29 min; LC retention time [4]: 3.69 min

Question: Which LC retention time [1] does the source give for `Cc1cc2nc3c(=O)[nH]c(=O)nc-3n(CC(O)C(O)C(O)CO)c2cc1C` (centres undefined) [RIBOFLAVIN] here?
Answer: 4.85 min

Question: And the LC retention time [2]?
Answer: 4.65 min

Question: What about the LC retention time [3] of the same compound?
Answer: 6.01 min

Question: What about the LC retention time [4] of the same compound?
Answer: 5.9 min

Question: Which results are given for `NC(=O)c1ccccc1O` [SALICYLAMIDE]?
Answer: LC retention time [1]: 5.42 min; LC retention time [2]: 5.26 min; LC retention time [3]: 0.81 min; LC retention time [4]: 1.46 min

Question: What does the source list for `O=C(O)CCCCCCCCC(=O)O` [SEBACATE]?
Answer: LC retention time [1]: 7 min; LC retention time [2]: 6.91 min; LC retention time [3]: 1.12 min; LC retention time [4]: 2.41 min

Question: With `Cn1c(=O)c2[nH]cnc2n(C)c1=O` [THEOPHYLLINE] as the compound, how does the LC retention time [1] read?
Answer: 4.07 min

Question: What about the LC retention time [2] of the same compound?
Answer: 3.88 min

Question: And the LC retention time [3]?
Answer: 1.36 min

Question: What about the LC retention time [4] of the same compound?
Answer: 1.98 min

Question: Which results are given for `CSc1ncnc2nc[nH]c12` [THIOPURINE S-METHYLETHER]?
Answer: LC retention time [1]: 4.64 min; LC retention time [2]: 4.4 min; LC retention time [3]: 1.08 min; LC retention time [4]: 2.09 min

From the RepoRT retention time repository (doi:10.1016/j.chroma.2019.01.023)
